Results taken from patent US20210283163A1, “COMPOSITIONS AND METHODS FOR THE TREATMENT OF ACUTE AND CHRONIC PRURITIS” (Duke University, priority 2018, published 2021).

Key:
hTRPA1 [1] = biological target: T1, hTRPA1 (Homo sapiens, UniProt O75762); test: Whole-cell patch clamp, inward currents in HEK293 cells expressing hTRPA1; format: cell-based
Protocol: Cell Culture and Transfection. CD4^+ Myla cell line was cultured in RPMI 1640 media (GIBCO), supplemented with 2 mM Glutamine (GIBCO), 100 U/mL IL-2 (Sigma), 100 U/mL IL-4 (Sigma), and 10% human AB serum (Sigma). HuT 102 cell line was cultured in RPMI 1640 supplemented with pyruvate, HEPES, and 10% (v/v) fetal bovine serum (HyClone). HEK293-hTRPA1 stable cell line was cultured in MEM (GIBCO) containing 2 mM Glutamine, 4 μg/mL Blasticidin, 10% FBS (v/v). B16 and CHO cells were cultured in high glucose (4.5 g/L) Dulbecco's Modified Eagle's Medium (GIBCO) containing 10% (v/v) fetal bovine serum (GIBCO). Culture media were supplemented with 50 units/mL of penicillin and 50 μg/mL streptomycin, and cultures were maintained with 5% CO2 in 37° C. incubator. Transfection (2 μg cDNA) was performed with Lipofectamine™ 2000 Reagent (Invitrogen) at 80% confluency and the transfected cells were cultured in the same media for 48 hr before electrophysiological and biochemical studies.
(§1) Whole-Cell Patch Clamp Recordings in HEK293 Cells, CHO Cells, and DRG Neurons. Whole-cell patch clamp recordings were performed at room temperature using an Axopatch-200B amplifier (Axon Instruments) with a Digidata 1440B (Axon Instruments). In this study, we only examined small-diameter mouse DRG neurons (<25 μM) and small-diameter human DRG neurons (<55 μM). The patch pipettes were pulled from borosilicate capillaries (World Precision Instruments) using a P-97 Flaming/Brown micropipette puller (Sutter Instrument). Pipette resistance was 4-6 MΩ for whole-cell and outside-out recording. For inward current recordings in mouse and human DRG neurons, HEK293 cells, and CHO cells, the internal solution contains (in mM): 140 CsCl, 10 EGTA, 10 HEPES, and 2 Mg-ATP, adjusted to pH 7.3 with CsOH. Whole cell recordings were performed in an extracellular solution that contains (in mM): 140 NaCl, 5 KCl, 2 MgCl2, 10 HEPES, and 10 glucose, adjusted to pH 7.4 with NaOH and osmolarity to 300-310 mOsm. […] Action potential recordings were performed in small-diameter DRG neurons, with the following solutions: i) internal pipette solution contains: 126 mM K-gluconate, 10 mM NaCl, 1 mM MgCl2, 10 mM EGTA, 10 mM HEPES and 2 mM Na-ATP, adjusted to pH 7.4 with KOH and osmolarity to 295-300 mOsm), and ii) extracellular solution contains: 140 mM NaCl, 5 mM KCl, 2 mM MgCl2, 2 mM CaCl2, 10 mM HEPES, 10 mM glucose, adjusted to pH 7.4 with KOH.

DRG neurons = test: Calcium imaging in cultured DRG neurons of Pirt-GCaMP3 mice; format: cell-based, mouse; details: for DRG neurons showing Ca2+ increase / responses: 544 neurons from 3 mice
Protocol: Primary Cultures of Mouse and Human Sensory Neurons. […] Cells were mechanically dissociated with a flame polished Pasteur pipette in the presence of 0.05% DNase I (Sigma).
Ca^2+ Imaging. […] The imaging buffer includes 140 mM NaCl, 10 mM D-(+)-Glucose, 1 mM MgCl2, 2 mM CaCl2, 5 mM KCl, 10 mM HEPES, pH=7.4, osmolarity=320 mOsm/L. Calcium signals were measured using green emitted light in a 3 s interval. Ca ^2+ signal amplitudes were presented as ΔF/F0=(Ft−F0)/F0 as ratio of fluorescence difference (Ft−F0) to basal value (F0). The average fluorescence intensity in the baseline period was taken as F0. Ca ^2+ imaging was also analyzed in HEK293-TRPA1 cell line after loading cells with […] fura2-AM (Invitrogen) for 40 min in the Ca^2+ imaging buffer. Ca^2+ imaging protocol was a ratio metric method with 340/380-nm wavelength light for dual excitation. Data were presented as ΔR/R0, determined as the fraction ΔR (Rt−R0) of the increase of a given ratio over baseline ratio (R0).

[2] = system: small-diameter DRG neurons; test: Patch clamp, inward currents and action potentials in small-diameter mouse DRG neurons; format: cell-based; details: for small-diameter neurons responding with inward currents or action potentials: AITC 15/90, miR-711 15/130
Protocol: Primary Cultures of Mouse and Human Sensory Neurons. DRGs or TGs were removed aseptically from mice (4-6 weeks) and incubated with collagenase (1.25 mg/mL, Roche)/dispase-II (2.4 units/mL, Roche) at 37° C. for 90 min, then digested with 0.25% trypsin for 8 min at 37° C., followed by 0.25% trypsin inhibitor. Cells were mechanically dissociated with a flame polished Pasteur pipette in the presence of 0.05% DNase I (Sigma). DRG cells were plated on glass coverslips and grown in a neurobasal defined medium (with 2% B27 supplement, Invitrogen) with 5 μM AraC and 5% CO2 at 36.5° C. DRG neurons were grown for 24 hr before use.
as §1

hTRPA1 [3] = biological target: T1, hTRPA1; test: RNA pull-down assay and immunoblotting; format: binding
Protocol: RNA Pull-Down Assay and Immunoblotting. hTRPA1-expressing HEK293 cells of equal amount (5×10^6) were plated onto 60 mm dishes, and 24 hr later, these cells were incubated with biotin-conjugated miR-711 or miR-711 (m6) in extracellular solution containing 140 mM NaCl, 5 mM KCl, 2 mM CaCl2, 1 mM MgCl2, 10 mM HEPES, and 10 mM glucose, adjusted to pH 7.4 for 15 min at 37° C. with 5% CO2. For crosslinking, 1% formaldehyde (vol/vol) was added at 37° C. for 10 min, then 12.5% glycine was applied to stop crosslinking by 5 min incubation at room temperature. Then the cells were collected and sonicated with ultrosonic probe sonicator (80% output, 5 s on and 10 s off) in 1 mL lysis buffer (1% Triton X-100, 50 mM Tris-HCl, 150 mM NaCl, 5 mM EDTA, pH7.4) on ice for 2 min. We then centrifuged the lysate at 13,000 rpm for 10 min at 4° C. and took 50 μL supernatant as lysate control. The remaining supernatant was added 20 μL streptadvilin agrose beads and incubated overnight. The pellets were collected after centrifuge at 6000 rmp for 30 s. For competing assay, miR-711 (10-50 μM) or mutant miR-711 (m6, 10-50 μM) were added 15 min before the incubation with biotin-conjugated miR-711 (10 μM). For immunoblotting, the lysates or beads were incubated in SDS-PAGE loading buffer for 30 min at 50° C., and supernatant was collected after centrifugation at 13000 rpm and decrosslink at 99° C. for 20 min. The samples were separated on an SDS-PAGE gel, transferred, and probed with TRPA1 antibody (1:1000; Alomone labs). The immunoreactive bands were detected with horseradish peroxidase-conjugated secondary antibody, visualized with enhanced chemiluminescence (Thermo scientific, Pittsburgh, Pa.), and quantified with Image-Pro Plus software (Media Cybernetics, Bethesda, Md.). Each experiment was repeated at least three times.

[4] = miR-711 50 μM, histamine 500 μM, CQ 1,000 μM, AITC 200 μM

T1 sequence (O75762 whole entry): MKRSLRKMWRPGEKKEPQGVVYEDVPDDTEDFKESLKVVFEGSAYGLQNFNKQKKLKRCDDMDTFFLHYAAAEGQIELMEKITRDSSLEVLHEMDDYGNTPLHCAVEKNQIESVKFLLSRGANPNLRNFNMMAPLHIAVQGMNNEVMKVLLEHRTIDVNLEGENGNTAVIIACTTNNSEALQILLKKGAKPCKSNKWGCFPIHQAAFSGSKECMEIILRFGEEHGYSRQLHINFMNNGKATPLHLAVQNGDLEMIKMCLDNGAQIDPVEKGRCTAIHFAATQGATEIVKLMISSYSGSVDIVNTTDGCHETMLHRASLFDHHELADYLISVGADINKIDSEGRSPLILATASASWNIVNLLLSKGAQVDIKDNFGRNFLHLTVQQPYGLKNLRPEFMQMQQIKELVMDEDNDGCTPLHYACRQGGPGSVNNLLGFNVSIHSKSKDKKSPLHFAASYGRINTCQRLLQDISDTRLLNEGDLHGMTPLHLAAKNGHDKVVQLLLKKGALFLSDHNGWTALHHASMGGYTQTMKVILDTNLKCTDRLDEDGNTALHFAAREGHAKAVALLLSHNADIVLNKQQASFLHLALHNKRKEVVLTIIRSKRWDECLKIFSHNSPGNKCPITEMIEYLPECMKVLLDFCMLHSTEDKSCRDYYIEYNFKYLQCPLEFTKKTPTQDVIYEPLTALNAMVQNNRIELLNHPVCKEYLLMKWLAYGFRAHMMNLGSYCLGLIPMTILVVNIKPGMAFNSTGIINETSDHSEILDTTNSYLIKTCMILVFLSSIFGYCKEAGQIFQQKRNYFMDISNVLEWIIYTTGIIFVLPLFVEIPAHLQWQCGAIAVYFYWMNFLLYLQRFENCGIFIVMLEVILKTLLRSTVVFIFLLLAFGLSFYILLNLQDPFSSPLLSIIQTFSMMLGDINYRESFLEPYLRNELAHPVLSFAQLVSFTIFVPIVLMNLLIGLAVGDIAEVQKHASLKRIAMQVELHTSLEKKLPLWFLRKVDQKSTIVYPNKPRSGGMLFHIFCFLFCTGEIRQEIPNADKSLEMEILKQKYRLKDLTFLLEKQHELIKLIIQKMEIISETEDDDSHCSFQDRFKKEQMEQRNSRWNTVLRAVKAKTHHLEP

CCC(=N\O)/C(C)=C/c1ccc(F)cc1 [A967079, (1E,3E)-1-(4-Fluorophenyl)-2-methyl-1-pentene-3-one oxime]
block of miR-711-evoked currents (hTRPA1 [1]; A967079 10 and 50 μM): dose-dependently blocked
block of miR-711-evoked calcium responses in DRG neurons (DRG neurons; miR-711 50 μM, A967079 10 μM): completely blocked
block of miR-711-induced action potentials ([2]; A967079 10 μM): blocked
block of miR-711-induced inward currents in DRG neurons ([2]; A967079 10 μM): blocked

C=CCN=C=S [AITC]
miR-711-responsive DRG neurons that also responded (DRG neurons; histamine 500 μM, CQ 1,000 μM, AITC 200 μM): all
DRG neurons showing Ca2+ increase / responses (DRG neurons; [4]): 22.6%
small-diameter neurons responding with inward currents or action potentials [2]: 16.7%

NH2-FRNELAYPVLTFGQL-COOH (H-FRNELAYPVLTFGQL-OH) [blocking peptide]
effect on AITC-induced inward current (hTRPA1 [1]; peptide 25 μM): did not affect
inhibition of miR-711-induced TRPA1 inward currents (hTRPA1 [1]; peptide 25 μM): suppressed
disruption of the miR-711/TRPA1 interaction (hTRPA1 [3]; RNA pull-down): disrupted the miR-711/TRPA1 interaction

miR-711: mmu-miR-711: gggacccggggagagauguaag (SEQ ID NO: 5) (GGGACCCGGGGAGAGAUGUAAG; chemistry not given here)
desensitization of TRPA1 after second application (hTRPA1 [1]; 10 μM): did not induce obvious desensitization
current-voltage relationship (hTRPA1 [1]; 10 μM, I/V curve): outward rectification
reversal potential of evoked current (hTRPA1 [1]; 10 μM, I/V curve): 0 mV
inward currents (hTRPA1 [1]; bath application, miRNAs and core sequence 10 μM, AITC 50 μM): produced inward currents
potency for inducing TRPA1 activation (dose-response curve) (hTRPA1 [1]; compared with AITC): more potent than AITC
latency of inward currents (hTRPA1 [1]; miR-711 10 μM versus AITC 50 μM, bath perfusion): shorter than that of AITC
calcium signaling in DRG neurons (DRG neurons; 10 μM): did not evoke meaningful calcium signaling
DRG neurons showing Ca2+ increase / responses (DRG neurons; [4]): 3.9%
DRG neurons showing calcium responses (DRG neurons; miR-711 50 μM, 15 of 310 neurons): 4.8%
competition with binding of biotin-labeled miR-711 to TRPA1 (hTRPA1 [3]; 10-50 μM added 15 min before biotin-conjugated miR-711 (10 μM)): inhibited the binding
action potentials in small-diameter DRG neurons ([2]; 10 μM, WT mice): induced action potentials
inward currents in small-diameter DRG neurons ([2]; 10 μM, WT mice): induced rapid inward currents
small-diameter neurons responding with inward currents or action potentials [2]: 11.5%
miR-711-induced excitation (action potentials) ([2]; TRPA1-deficient neurons): lost
miR-711-induced inward currents in DRG neurons of knockout mice ([2]; Trpa1 knockout mice): abolished
action potential duration ([2]; compared with AITC): shorter duration
after-hyperpolarization of the action potentials ([2]; compared with AITC): did not differ
